This note sets out measurements from patent US12065429B2, “Small molecule modulators of IL-17” (LEO Pharma A/S, priority 2022, dated 2024).

Values after ≈ are worked out from the molar mass of the structure shown.

Series [1] is described as follows: Human liver microsome (HLM) clearance assay. The class given is in vitro ADME. The note with it: human liver microsomes 0.5 mg/mL, NADPH 1 mM, 0.5 μM compound, 40 min. Here is the method: Example 63: Human Liver Microsome (HLM) Clearance Assay
Samples were taken out before addition of NADPH, and at 5, 10, 20 and 40 minutes thereafter and protein precipitation using cold acetonitrile with added internal standard was performed prior to centrifugation and sample analysis using compound specific LCMS/MS methods. Control incubations in buffer and without NADPH were performed in the same manner. Compound depletion was determined and apparent clearance (CLapp) was calculated.
Background: Liver microsomes are vesicles of endoplasmic reticulum, rich in cytochrome P450 enzymes.

For a further series, the target named is T1, recombinant IL-17AA (Homo sapiens, UniProt Q16552).
T1 construct: purchased R&D Systems 7955-IL
T1 sequence (Q16552 24-155): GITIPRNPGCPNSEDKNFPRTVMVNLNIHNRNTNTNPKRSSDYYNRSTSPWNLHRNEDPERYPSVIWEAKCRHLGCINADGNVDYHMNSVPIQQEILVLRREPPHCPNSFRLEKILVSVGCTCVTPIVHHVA
The series can be described thus: Inhibition of recombinant IL-17AA-induced SEAP reporter gene activity in HEK-Blue IL-17 cells. It counts as cell-based. The note with it: recombinant IL-17A 2 ng/ml, overnight. As to the method:
Example 62: Inhibition of Recombinant IL-17AA-Induced SEAP Reporter Gene Activity in HEK-Blue™ IL-17 Cells
The assay was run according to the protocol provided by InvivoGen. Briefly, the HEK-Blue™ IL-17 cells (Invivogen, cat #hkb-il17) were suspended in the complete culture medium and seeded in a 96 well plate in a volume of 80 μl in a density of 50,000 cells per well the day before the assay. 10 μl of a solution of the test compounds were added in a serial gradient dilution to the cells followed by the addition of 10 μl IL-17A (R&D Systems cat #7955-IL) in a final concentration of 2 ng/ml. The plate was incubated overnight. The QUANTI-Blue™ solution was used to determine the SEAP activity; 180 μl QUANTI-Blue™ solution and 20 μl of the supernatant from the cell plate were mixed and incubated for 1 hour at 37 degrees Celsius. SEAP levels were measured using a spectrophotometer at 650 nm.
A general note: A reporter such as luciferase makes a cellular process visible.

A further series can be described thus: Solubility assay. To be noted: 0.067 M phosphate buffer pH 6.5, 24 hours shaking, from 10 mM DMSO stock; for solubility at 24 h: aqueous buffer, kinetic from dmso stock. It counts as physicochemical. Here is the method:
After centrifugation, the supernatant was analyzed by HPLC-UV. The solubility was defined as the concentration of the test substance in the selected solvent. It was determined by correlation with an external standard calibration curve.

Broadly, the EC50 is the midpoint of the concentration-response curve. As a reminder, the Solubility is the dissolved amount per volume that the medium holds. Higher therefore signals much dissolved substance. For `Cc1cc[n+]([O-])c(C)c1-c1ccc(NC(=O)[C@@H](NC(=O)c2ccnn2C(C)C)C(C2CC2)C2CC2)nc1Cl` (single isomer, unassigned) [Example 57], the “HLM Clapp” value in series [1] is on record as 18 mL/min/kg. Moreover, the EC50 at recombinant IL-17AA came out at 740 nM. The “Solubility at pH 6.5” value in the series “Solubility assay” is recorded as less than 1 μg/mL.
As usually defined, the solubility is how much of the substance goes into solution per volume. Lower therefore signals little dissolved substance. Regarding `Cc1cc(-c2ccc(NC(=O)[C@@H](NC(=O)c3ccnn3C(C)C)C(C3CC3)C3CC3)nc2F)c(C)[n+]([O-])c1` [Example 3, N-[(1S)-1-(dicyclopropylmethyl)-2-[[5-(2,5-dimethyl-1-oxido-pyridin-1-ium-3-yl)-6-fluoro-2-pyridyl]amino]-2-oxo-ethyl]-2-isopropyl-pyrazole-3-carboxamide], the “HLM Clapp” value in series [1] is listed as less than 8 mL/min/kg. The EC50 at recombinant IL-17AA came out at 17 nM. This compound also showed a solubility at 24 h in “Solubility assay” of 45 µg/mL (≈ 86.4 µM).
The like results for `COc1cc(-c2ccc(NC(=O)[C@@H](NC(=O)c3ccnn3C(C)C)C(C3CC3)C3CC3)nc2F)c(C)[n+]([O-])c1` [Example 1, N-[(1S)-1-(dicyclopropylmethyl)-2-[[6-fluoro-5-(5-methoxy-2-methyl-1-oxido-pyridin-1-ium-3-yl)-2-pyridyl]amino]-2-oxo-ethyl]-2-isopropyl-pyrazole-3-carboxamide] were, in that order, 12 mL/min/kg, 11 nM and 29 µg/mL (≈ 54 µM).
Turning to `Cc1cc[n+]([O-])c(C)c1-c1ccc(NC(=O)[C@@H](NC(=O)c2ccnn2C(C)C)C(C2CC2)C2CC2)nc1Cl` (single isomer, unassigned) [Example 56], the “HLM Clapp” value in series [1] turned out to be 16 mL/min/kg. Further, at recombinant IL-17AA, the concentration giving a half-maximal response (EC50) was 4.6 nM. In addition, the solubility at 24 h in the series “Solubility assay” was less than 1 µg/mL.
As for `Cc1c(-c2ccc(NC(=O)[C@@H](NC(=O)c3ccnn3C(C)C)C(C3CC3)C3CC3)nc2F)cc(C#N)c[n+]1[O-]` [Example 59, N-[(1S)-1-[[5-(5-cyano-2-methyl-1-oxido-pyridin-1-ium-3-yl)-6-fluoro-2-pyridyl]carbamoyl]-2,2-dicyclopropyl-ethyl]-2-isopropyl-pyrazole-3-carboxamide], the “HLM Clapp” value in series [1] is given as less than 9 mL/min/kg. Moreover, at recombinant IL-17AA, the EC50 came to 46 nM. This compound also showed a solubility at 24 h in the series “Solubility assay” of 29 µg/mL (≈ 54.6 µM).
For `Cc1c(-c2ccc(NC(=O)[C@@H](NC(=O)c3ccnn3C(C)C)C(C3CC3)C3CC3)nc2F)cc(S(C)(=O)=O)c[n+]1[O-]` [Example 58, N-[(1S)-1-(dicyclopropylmethyl)-2-[[6-fluoro-5-(2-methyl-5-methylsulfonyl-1-oxido-pyridin-1-ium-3-yl)-2-pyridyl]amino]-2-oxo-ethyl]-2-isopropyl-pyrazole-3-carboxamide], in that order: 10 mL/min/kg, 100 nM and 14 µg/mL (≈ 23.9 µM).
